# Assay results: patent US12544355B2, “Use of monascinol in preparation of fat-reducing product” (TIANJIN UNIVERSITY OF SCIENCE AND TECHNOLOGY, priority 2019, dated 2026)
# Marks after values point to notes of the source that are not given here.
# Key:
# [1] = test system: HepG2 cells modeled with oleic acid; experiment: Cytotoxicity (MTT) on HepG2 cells modeled with oleic acid; format: cell-based; details: 24 h, 0.3 mmol/L oleic acid
# Procedure: (§1) HepG2 cells in good growth condition were inoculated in a 6-well plate at 2*10^5 cells/mL, 1 mL per well. When cell adhesion rate reached 80%-90%, the medium was discarded. A blank group and a model group were set, where a complete medium was added to the blank group, 0.3 mmol/L oleic acid induction solution diluted with a complete medium was added to the model group, at 2 mL per well; after 24 hours of culture, the accumulation of lipid drops in the cells was observed by oil red 0 staining.
# • a. HepG2 cells in good growth condition were inoculated in a 96-well plate at 5*10^4 cells/mL, 100 μL per well. When the cell adhesion rate reached 80%-90%, the medium was discarded. • b. MS and MC were each dissolved in dimethyl sulfoxide (DMSO) to prepare a 5 mg/mL of mother liquid, and the mother liquid was stored at −20° C. The 5 mg/mL of mother liquid was diluted with a complete medium containing 0.3 mmol/L of oleic acid to obtain MS sample concentrations or MC sample concentrations (2, 4, 6, 8, 10, 12 μg/mL) required for the experiment, ensuring that a final concentration of DMSO in each sample is 0.5%. • c. […]
# After 24 h, the survival rate of HepG2 cells in each group was detected based on a MTT experiment method. • d. results are shown in FIG. 2.
# pancrelipase = target: T1, pancrelipase (Sus scrofa, UniProt P00591); experiment: Type of inhibition on pancrelipase (order of addition, Lineweaver-Burk double reciprocal plot); format: biochemical, porcine; details: 160 μg/mL MC, lipase 1 mg/mL
# T1 construct: pancrelipase (Type II, derived from a porcine pancreas); from tissue; host or cells: porcine pancreas
# T1 sequence (P00591 1-450): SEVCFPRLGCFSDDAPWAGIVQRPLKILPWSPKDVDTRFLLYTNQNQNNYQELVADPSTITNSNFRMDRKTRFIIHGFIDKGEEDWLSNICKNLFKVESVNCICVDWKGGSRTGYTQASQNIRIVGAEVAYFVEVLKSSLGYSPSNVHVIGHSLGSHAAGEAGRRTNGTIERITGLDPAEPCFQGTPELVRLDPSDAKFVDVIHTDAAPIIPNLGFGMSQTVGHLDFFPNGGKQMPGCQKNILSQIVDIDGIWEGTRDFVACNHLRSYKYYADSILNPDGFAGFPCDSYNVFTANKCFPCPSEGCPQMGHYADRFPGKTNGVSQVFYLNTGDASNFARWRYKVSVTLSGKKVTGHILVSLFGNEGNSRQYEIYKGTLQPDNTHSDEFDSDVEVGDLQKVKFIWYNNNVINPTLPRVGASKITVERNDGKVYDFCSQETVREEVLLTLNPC
# Procedure: According to different forms and characteristics of binding between enzymes and inhibitors, the inhibitions can be divided into two types: reversible inhibition and irreversible inhibition. The irreversible inhibition usually binds to a group in an enzyme protein by a relatively strong covalent bond to inactivate an enzyme. […] In this part of experiment, MS and AK were used as controls, and the type of inhibition of MC was determined by changing the order of adding reactants, the intervention concentrations of the three pigment inhibitors were all 80 μg/mL. […]
# The type of inhibition of MC on pancrelipase was determined based on the results of Lineweaver-burk double reciprocal plot method as follows.
# A basic process of experiment of drawing the Lineweaver-Burk curve was: under the condition of a determined lipase concentration (1 mg/mL), the enzymatic reaction rates were measured with a series of different substrate concentrations. […]
# [2] = test system: HepG2 cells modeled with oleic acid; experiment: Triglyceride content in HepG2 cells modeled with oleic acid (triglyceride kit); format: cell-based; details: 24 h, 0.3 mmol/L oleic acid; for reduce the TG content in cells by: Example 3, 2 μg/mL
# Procedure: • a. HepG2 cells in good growth condition were inoculated in a 6-well plate at 2*10^5 cells/mL, 1 mL per well, cultured for 12 h, and after the cells adhered to the wall, the medium was discarded. • b. after the medium was discarded, a blank group, a modeling group and a dosing group were set. • Blank control group: added with 2 mL of a complete medium per well; • Oleic acid modeling group: added with 2 mL of a complete medium containing 0.3 mmol/L of oleic acid per well; • MC low dose group: added with 2 mL of a complete medium containing 0.3 mmol/L of oleic acid and 2 μg/mL of Monascinol per well; • MC middle dose group: added with 2 mL of a complete medium containing 0.3 mmol/L of oleic acid and 4 μg/mL of Monascinol per well; • MC high dose group: added with 2 mL of a complete medium containing 0.3 mmol/L of oleic acid and 8 μg/mL of Monascinol per well; • After completing the administration, the cells of each group were cultured for 24 hours and then collected, a triglyceride kit (Beijing Applygen Technologies Inc.) was utilized to measure the content of triglyceride in HepG2 cells of each group. • c. results are shown in FIG. 3. Different letters indicate significant differences from the blank group, P<0.01.
# Firstly, normal HepG2 cells were obtained, and HepG2 cells modeled with oleic acid were obtained according to the method in Example 1 (a concentration of oleic acid was 0.3 mmol/L).
# (§2) On day 1, blank control group: normally cultured HepG2 cells without treatment; oleic acid modeling group (the concentration of oleic acid is 0.3 mmol/L): normally culture HepG2 cells modeled with oleic acid without treatment; MC group: HepG2 cells modeled with oleic acid were administered with 2 μg/mL of Monascinol, i.e., MC; MS group: HepG2 cells modeled with oleic acid were administered with 2 μg/mL of Monascin (MS).
# After completing the administration, the cells of each group were cultured for 24 hours and then collected, a triglyceride kit (Beijing Applygen Technologies Inc.) was utilized to measure the content of triglyceride in HepG2 cells of each group, results are shown in FIG. 4.
# [3] = target: T2, pancrelipase (Type II, derived from a porcine pancreas) (Sus scrofa, UniProt P00591); experiment: Inhibitory activity on pancrelipase, 4-MUO substrate, fluorescence detection; format: biochemical; details: 4-MUO 0.1 mM, lipase 1 mg/mL, 30 mins at 25° C.
# T2 construct: pancrelipase (Type II, derived from a porcine pancreas); from tissue; host or cells: porcine pancreas
# T2 sequence (P00591 1-450): T1 sequence (P00591 1-450)
# Description: In an experiment, 4-methylumbelliferyl oleate (4-MUO) was used as a substrate and a fluorescence detection method was used to evaluate the inhibitory activity of MC on pancrelipase (Type II, derived from a porcine pancreas).
# The following groups were set (see also Table 1): • Blank group: no MC sample, only substrate, pancrelipase and Tris-HCL buffer; • Blank background group: no MC sample and pancrelipase, only substrate and Tris-HCL buffer; • Sample background group: no pancrelipase, only MC sample, substrate and Tris-HCL buffer; • Sample group: no Tris-HCL buffer, only MC sample, substrate and pancrelipase.
# The inhibition rate was calculated according to the following formula: Inhibition rate (%)=[(A1−A2)−(A3−A4)]/(A1−A2)×100
# A1: Fluorescence value in blank group; A2: Fluorescence value in blank background group; A3: Fluorescence value in sample group; and A4: Fluorescence value in sample background group.
# Three parallel experiments were set for each group, in which the concentration of 4-MUO is 0.1 mM, and the MC samples were dissolved in DMSO (set 6 different concentrations: 5, 10, 20, 40, 80 and 160 μg/mL), the concentration of the lipase solution is 1 mg/mL. […] Therefore, the product 4-methylumbelliferone was determined under conditions of an excitation wavelength of 360±40 nm and an emission wavelength 460±40 nm. […]
# [4] = test system: Golden Syrian hamsters fed with high-fat diet; experiment: High-fat diet hamster experiment, 10 weeks gavage; format: in vivo, Golden Syrian hamster
# Procedure: 24 male Golden Syrian hamsters (hamsters for short) used in the animal experiment were purchased from Beijing Vital River Laboratory Animal Technology Co., Ltd., weighing 110-120 g, and aged 8 weeks.
# After acclimation for a period of time, they were randomly divided into 3 groups, each with 8 animals, and the grouping and experiments were carried out as follows:
# Every day starting from Day 1: • Normal group (NOR): take normal-chow diet freely, and gavage the same amount of CMC-Na solution as the MC group; • High fat group (HFD): take high-fat chow diet freely, and gavage the same amount of CMC-Na solution as the MC group; • MC group: take high-fat chow diet freely, and gavage MC (dissolved in CMC-Na solution) at a dose of 20 mg/kg body weight.
# The weight and food intake of the hamsters were measured every week. After 10 weeks, tissue samples or serum samples were collected and the following analysis was performed.
# TC and TG in the liver were extracted based on the Folch method, the TC and TG detection kits produced by Nanjing Jiancheng Bioengineering Institute was used to detect the contents of TC and TG in liver tissue according to the method provided in the instructions.
# Cobas8000 E602 full-automatic biochemical analyzer (Roche Diagnostics Co., Ltd., Germany) was used to measure TC and TG in serum of collected serum samples.
# [5] = test system: HepG2 cells modeled with oleic acid; experiment: Oil red O staining of lipid drops in HepG2 cells modeled with oleic acid; format: cell-based; details: 2 μg/mL, inverted microscope ×400
# Procedure: as §1, §2
# Morphological observation was further carried out by oil red 0 staining, and the results are shown in FIGS. 5A-5C (inverted microscope×400), FIG. 5A is a diagram of lipid accumulation in HepG2 cells of an oleic acid modeling group; FIG. 5B is a diagram of lipid accumulation in HepG2 cells of an MS group; FIG. 5C is a diagram of lipid accumulation in HepG2 cells of an MC group. […] This is consistent with the test result of TG.
# [6] = high-fat diet, gavage 20 mg/kg body weight daily
# [7] = histology, 100× and 400× light microscope, 20 mg/kg
Compound,survival rate of cells ([1]; administration concentration 12 μg/mL),type of inhibition on pancrelipase (pancrelipase),"TG content in the cells decreased by (vs modeling group) ([2]; Example 2, 2 μg/mL)","TG content in the cells decreased by (vs modeling group) ([2]; Example 2, 4 μg/mL)","TG content in the cells decreased by (vs modeling group) ([2]; Example 2, 8 μg/mL)",reduce the TG content in cells by [2],IC50 [3],"Fat index (weight of perirenal and periepididymal fat pad/weight of body) [4, 6]","Liver tissue TC [4, 6]","Liver tissue TG [4, 6]","Liver weight [4, 6]","Serum TC [4, 6]","Serum TG [4, 6]","Weight gain [4, 6]","Weight of periepididymal fat pad [4, 6]","Weight of perirenal fat pad [4, 6]","adipose tissue sections: volume of periepididymal and perirenal adipose cells vs HFD group [4, 7]","liver tissue sections: lipid accumulation in liver cells vs HFD group [4, 7]","lipid drops in the cells, oil red O staining vs oleic acid modeling group [5]",survival rate of cells ([1]; administration concentration 10 μg/mL or more)
"C/C=C/C1=CC2=C(CO1)C[C@]1(C)OC(=O)[C@H](C(O)CCCCC)[C@H]1C2 (stereo partly drawn) [MC, Monascinol]",66.7%,anti-competitive inhibition,38.9%,34.6%,51.3%,33.3%,219 µM,3.56 ± 0.26^a,20.66 ± 0.58^c mg/g,9.62 ± 0.34^a mg/g,4.21 ± 0.17^a g,4.73 ± 0.21^b mmol/L,2.97 ± 0.39^c mmol/L,22.33 ± 4.12^c g,2.99 ± 0.28^a g,1.62 ± 0.19^a g,significantly smaller volume than that in the HFD group,significantly reduced,reduce lipid drops in the cells and lighten color,–
"C/C=C/C1=CC2=C(CO1)C(=O)[C@]1(C)OC(=O)[C@H](C(=O)CCCCC)[C@H]1C2 [MS, Monascin]",–,–,–,–,–,26.3%,–,–,–,–,–,–,–,–,–,–,–,–,–,36.7%
